Experiments:
[1] = target: T1, ERα (Homo sapiens, UniProt P03372); test: Homogeneous in vitro functional assay, coactivator recruitment (FRET); format: biochemical; conditions: FIG. 1
T1 sequence (P03372 311-547 limits assumed): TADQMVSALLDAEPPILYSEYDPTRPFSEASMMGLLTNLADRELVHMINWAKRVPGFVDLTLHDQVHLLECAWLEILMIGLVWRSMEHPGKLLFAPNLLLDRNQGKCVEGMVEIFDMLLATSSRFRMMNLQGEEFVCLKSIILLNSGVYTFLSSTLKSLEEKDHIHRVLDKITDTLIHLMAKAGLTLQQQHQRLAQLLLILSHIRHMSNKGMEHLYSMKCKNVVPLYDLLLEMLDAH
Method: (§1) Structures 15 and 15′ were tested in a functional assay for ERβ and ERα as described in Liu J. et al. A Homogeneous in Vitro Functional Assay for Estrogen Receptors: Coactivator Recruitment. Mol Endocrinology 17, 346-355 (2003). Briefly, a homogeneous in vitro functional assay for measuring ligand-dependent transactivation function of ERαa and ERβ was used to measure selectivity of structures 15 and 15′ as agonists for the two classes of receptors. Briefly, agonist binding of Structures 15 and 15′ were assessed by measuring Fluorescence Resonance Energy Transfer (FRET) between europium that is associated with ligand binding domains of ERα and ERβ, and allophycocyanine that is associated with co-activator peptide that is recruited to the LBD in response to agonist binding.

[2] = target: T2, ERβ (Homo sapiens, UniProt Q92731); test: as above; format: biochemical; conditions: for selectivity for ERβ: ERβ over ERα, functional assay
Method: as §1
Target sequence in this assay (Q92731 264-498 limits assumed): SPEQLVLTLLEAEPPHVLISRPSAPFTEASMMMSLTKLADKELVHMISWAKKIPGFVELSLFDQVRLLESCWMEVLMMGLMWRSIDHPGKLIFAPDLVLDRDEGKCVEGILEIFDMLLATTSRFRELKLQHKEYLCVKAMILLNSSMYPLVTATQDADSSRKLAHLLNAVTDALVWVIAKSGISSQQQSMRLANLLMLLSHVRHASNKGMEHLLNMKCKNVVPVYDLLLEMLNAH

[3] = target: T3, ERα (Homo sapiens, UniProt P03372); test: Binding assay, inhibition of [3H] estradiol binding to hER
T3 sequence (P03372 1-595): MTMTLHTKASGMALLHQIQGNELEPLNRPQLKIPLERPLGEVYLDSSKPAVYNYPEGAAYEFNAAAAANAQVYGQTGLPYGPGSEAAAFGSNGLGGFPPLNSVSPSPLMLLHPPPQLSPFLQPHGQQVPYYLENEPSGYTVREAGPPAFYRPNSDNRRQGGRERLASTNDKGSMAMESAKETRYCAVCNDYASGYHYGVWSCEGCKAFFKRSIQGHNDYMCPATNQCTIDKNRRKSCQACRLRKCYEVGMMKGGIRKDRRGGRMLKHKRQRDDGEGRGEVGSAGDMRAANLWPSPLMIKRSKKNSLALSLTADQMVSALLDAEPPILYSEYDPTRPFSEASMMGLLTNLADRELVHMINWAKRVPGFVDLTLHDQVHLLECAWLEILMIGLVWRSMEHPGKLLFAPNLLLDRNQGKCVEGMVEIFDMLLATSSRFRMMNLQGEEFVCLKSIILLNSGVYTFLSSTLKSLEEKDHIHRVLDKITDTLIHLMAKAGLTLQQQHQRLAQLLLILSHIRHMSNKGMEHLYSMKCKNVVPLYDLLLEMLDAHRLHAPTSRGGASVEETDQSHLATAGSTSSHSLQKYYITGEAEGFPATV
Method: (§2) Structures 3 and 3' were tested in a binding assay for ERβ and ERα as described in Obourn […]. & Notides A. C. Hormone-and DNA-Binding Mechanisms of the Recombinant Human Estrogen Receptor. Biochemistry 32, 6229-6236 (1993). Briefly, agonist binding of Structure 3 and Structure 3' to ERα and ERβ were assessed by Scatchard analysis measuring inhibition of [^3H] estradiol binding to hER by Structure 3 and 3'.

[4] = target: T2, ERβ; test: as above; conditions: FIG. 2
Method: as §2
Target sequence in this assay (Q92731 whole entry): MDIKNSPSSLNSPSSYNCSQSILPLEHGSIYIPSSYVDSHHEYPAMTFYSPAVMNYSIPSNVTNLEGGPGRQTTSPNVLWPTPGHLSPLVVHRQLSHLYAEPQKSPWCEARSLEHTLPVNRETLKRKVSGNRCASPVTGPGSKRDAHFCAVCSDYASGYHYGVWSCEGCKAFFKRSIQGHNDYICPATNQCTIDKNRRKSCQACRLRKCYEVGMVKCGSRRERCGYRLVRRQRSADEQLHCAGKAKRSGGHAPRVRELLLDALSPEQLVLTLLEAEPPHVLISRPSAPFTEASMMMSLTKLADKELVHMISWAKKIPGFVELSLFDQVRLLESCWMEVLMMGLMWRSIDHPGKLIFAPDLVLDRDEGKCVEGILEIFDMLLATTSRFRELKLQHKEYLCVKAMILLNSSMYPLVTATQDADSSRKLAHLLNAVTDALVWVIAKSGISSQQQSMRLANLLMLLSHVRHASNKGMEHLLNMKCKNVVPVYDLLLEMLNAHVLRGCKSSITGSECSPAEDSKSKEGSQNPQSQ

[5] = target: T3, ERα; test: Dual estrogen receptor TR-FRET functional assay; format: biochemical; conditions: dual ER TR-FRET assay
Method: (§3) Structures 3 and 3' were tested in a functional assay for ERβ and ERα as described in […]., Puetter V., Otto C. Parczyk K. & Bader B. A Dual Estrogen Receptor TR-FRET Assay for Simultaneous Measurement of Steroid Site Binding and Coactivator Recruitment. J Biomolec Screening 15, 268-278 (2010). Briefly, agonist binding of Structures 3 and 3' to ERα and ERβ were assessed by a dual estrogen receptor TR-FRET assay.

[6] = target: T2, ERβ; test: Dual estrogen receptor TR-FRET functional assay; format: biochemical; conditions: dual ER TR-FRET assay, FIG. 3
Method: as §3
Target sequence in this assay (Q92731 whole entry): as above

SMILES | selectivity for ERβ [2] [fold] | IC50 [4] [nM] | EC50 [6] [nM] | other results
COC(=O)CC[C@H]1C[C@H]2[C@@H]3CCc4cc(O)ccc4[C@H]3CC[C@]2(C)[C@H]1O [Compound 15] | > 10 | – | – | EC50 [1]: > 100000 nM; EC50 ([2]; functional coactivator recruitment FRET assay, FIG. 1): ~10000 nM
COC(=O)CC[C@@H]1C[C@H]2[C@@H]3CCc4cc(O)ccc4[C@H]3CC[C@]2(C)[C@H]1O [Compound 15′, reference compound] | ~2 | – | – | –
CCOC(=O)[C@H]1C[C@H]2[C@@H]3CCc4cc(O)ccc4[C@H]3CC[C@]2(C)[C@H]1O [Structure 3] | – | 100 | 3000 | IC50 ([3]; FIG. 2): 78 nM; EC50 ([5]; FIG. 3A): 1080 nM
CCOC(=O)[C@@H]1C[C@H]2[C@@H]3CCc4cc(O)ccc4[C@H]3CC[C@]2(C)[C@H]1O [Structure 3′, reference compound] | – | 140 | > 10000 | IC50 ([3]; FIG. 2B): 1.46 nM; EC50 ([5]; FIG. 3B): 5.92 nM
